From article PMC11915366 (ACS infectious diseases, 2025)

Columns and labels:
[1] = test system: M. smegmatis mc^2155; test: Checkerboard FICI, M. smegmatis mc^2155 expressing TetX-HA; type: cell-based; conditions: combination with Tetracycline
[2] = test system: human red blood cells; type: cell-based; conditions: concentrations up to 500 μM (~250 μg/mL); 1 hour at 37 °C
[3] = test system: P. aeruginosa PA 27853; test: Checkerboard FICI, P. aeruginosa PA 27853; type: cell-based
[4] = target: T1, Tet50 (Unknown prokaryotic organism, UniProt A0A059WYP6); conditions: Tet(50); cited from earlier work
T1 sequence (A0A059WYP6 1-388): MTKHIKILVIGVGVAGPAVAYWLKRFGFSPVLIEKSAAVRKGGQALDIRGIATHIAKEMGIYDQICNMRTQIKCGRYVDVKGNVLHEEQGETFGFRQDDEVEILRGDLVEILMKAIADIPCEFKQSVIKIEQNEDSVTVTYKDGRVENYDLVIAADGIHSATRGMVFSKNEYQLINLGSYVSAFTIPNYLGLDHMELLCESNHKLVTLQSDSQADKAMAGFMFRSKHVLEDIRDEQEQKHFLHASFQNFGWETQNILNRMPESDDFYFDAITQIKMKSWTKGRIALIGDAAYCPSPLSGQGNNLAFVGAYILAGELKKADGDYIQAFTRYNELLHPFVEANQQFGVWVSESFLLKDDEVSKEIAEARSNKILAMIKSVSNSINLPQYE

[5] = test system: E. coli DH5αZ1; test: Checkerboard FICI, E. coli DH5αZ1; type: cell-based
[6] = test system: P. aeruginosa Pa-3; test: Checkerboard FICI, P. aeruginosa Pa-3; type: cell-based
[7] = test system: E. coli DH5αZ1 expressing TetX7 or Tet50 from pZE24 plasmid; test: MIC by microbroth dilution, inhibitor alone or with fixed 8 μg/mL TC; type: cell-based; conditions: fixed TC concentration of 8 μg/mL; inhibitor concentration needed to rescue TC activity
[8] = test system: E. coli DH5αZ1+pZE24; test: Checkerboard FICI, E. coli DH5αZ1+pZE24; type: cell-based; conditions: combination with Tetracycline; E. coli DH5αZ1+pZE24 (empty vector)
[9] = test system: E. coli DH5αZ1+pZE24-Tet50; test: Checkerboard FICI, E. coli DH5αZ1+pZE24-Tet50; type: cell-based; conditions: combination with Tetracycline
[10] = test system: E. coli DH5αZ1+pZE24-TetX7; test: Checkerboard FICI, E. coli DH5αZ1+pZE24-TetX7; type: cell-based; conditions: combination with Tetracycline
[11] = target: TetX7 (Pseudomonas aeruginosa, UniProt Q7X2A0); test: Apparent steady-state kinetics of NADPH consumption; type: biochemical; conditions: increasing inhibitor concentration, A340
[12] = test system: E. coli DH5αZ1 expressing TetX7 or Tet50 from pZE24 plasmid; conditions: E. coli expressing TetX7 and Tet50; cited from earlier work
[13] = type: in vitro ADME; conditions: E. coli cell lysate, 37 °C; LC-MS (A405 for acetate control)
[14] = combination with Tetracycline, P. aeruginosa PA 27853
[15] = combination with Tigecycline, P. aeruginosa PA 27853
[16] = combination with Tetracycline, P. aeruginosa PA 27853 (control lacking TetX7)

Chain of TetX7 (Q7X2A0 1-378): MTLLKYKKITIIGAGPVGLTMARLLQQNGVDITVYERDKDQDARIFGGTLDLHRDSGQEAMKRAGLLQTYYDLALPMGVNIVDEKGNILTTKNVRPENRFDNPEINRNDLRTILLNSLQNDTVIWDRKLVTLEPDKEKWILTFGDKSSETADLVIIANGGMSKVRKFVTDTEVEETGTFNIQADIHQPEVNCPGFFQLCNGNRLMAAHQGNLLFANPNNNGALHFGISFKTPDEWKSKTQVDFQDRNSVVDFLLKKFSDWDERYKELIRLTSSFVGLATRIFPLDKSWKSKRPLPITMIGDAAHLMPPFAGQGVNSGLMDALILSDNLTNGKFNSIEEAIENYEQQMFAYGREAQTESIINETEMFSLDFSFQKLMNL

Compound	Effect [1]	FICI [1]	Effect [3, 14]	Effect [3, 15]	Effect ([5]; combination with Tetracycline)	FICI ([5]; combination with Tetracycline)	Effect ([5]; combination with Tigecycline)	FICI ([5]; combination with Tigecycline)	Effect ([6]; combination with Tetracycline)	Effect ([6]; combination with Tigecycline)	MIC of inhibitor combined with TC [7] [µg/mL]	Effect [8]	FICI [8]	FICI [3, 16]	FICI [3, 15]	Effect [9]	FICI [9]	Effect [10]	FICI [10]	also measured
Cc1c2c(c(O)c3c(O)cccc13)C(=O)[C@]1(O)C(=O)C(C(N)=O)=C(O)[C@@H](N(C)C)[C@@H]1C2 [aTC, anhydrotetracycline, reference compound]	Indifferent	1	Additive	Additive	Indifferent	>1	Indifferent	>1	Synergetic	Synergetic										Hemolysis [2]: No hemolysis; Kapp of NADPH consumption [4]: 2.0 ± 0.3 µM
Cc1c2c(c(O)c3c(OC(=O)c4ccccn4)cccc13)C(=O)[C@]1(O)C(=O)C(C(N)=O)=C(O)[C@@H](N(C)C)[C@@H]1C2 [Inhibitor 7]	Additive/Indifferent	0.75–1	Indifferent	Indifferent	Additive		Indifferent	>1	Indifferent	Synergetic	2	Indifferent	1.125	>1	>1	Additive	0.625	Additive	0.625	
Cc1c2c(c(O)c3c(OC(=O)c4cccnc4)cccc13)C(=O)[C@]1(O)C(=O)C(C(N)=O)=C(O)[C@@H](N(C)C)[C@@H]1C2 [Inhibitor 8]	Additive/Indifferent	0.75–1	Indifferent	Indifferent	Indifferent	>1	Indifferent	>1	Indifferent	Additive	4	Indifferent	1	>1	>1	Synergetic	0.265	Synergetic	0.375	Vmax of NADPH consumption [11]: 0.05 ± 0.02 min⁻¹
CN(C)[C@@H]1C(O)=C(C(N)=O)C(=O)[C@@]2(O)C(O)=C3C(=O)c4c(O)cccc4[C@@](C)(O)[C@H]3C[C@@H]12 [TC, tetracycline]																				MIC of TC [12]: > 8 µg/mL
CC(=O)Oc1ccc([N+](=O)[O-])cc1 [p-NO2-phenyl acetate]																				Stability toward hydrolysis in cell lysate [13]: time- and lysate-dependent increase in A405
